Test results taken from patent US10583128B2, “Treatment of diseases related to alpha subunits of sodium channels, voltage-gated (SCNxA) with small molecules” (CuRNA, Inc., priority 2011, dated 2020).
Structures can show the parent of a compound that is named as a salt.

What was measured:
SCN1A mRNA [1] = assay: Upregulation of SCN1A mRNA in primary human skin fibroblasts carrying a Dravet-associated mutation (real time PCR); type: cell-based; details: compound 1 uM, 24-48 h, 18S-normalized vs vehicle (DMSO), average upregulation; for fold induction at 1 µM: Homo sapiens, Skin fibroblast, read-out: fold increase in SCN1A mRNA levels, SCN1A fibroblasts, Avg
Procedure: (§1) Transfer of a small molecule into a host cell or organism and determination of its effect upon RNA or protein up-regulation or down regulation can be assessed by several methods well known in the art. For example, SCN1A fibroblasts and/or keratinocytes or other cell types as desired are selected and grown for the specific assays herein. One day before the experiment cells are plated at the density of approximately 4×10^4/well into 24 well plates in Growth Media and incubated at 37° C. and 5% CO2 overnight. Next day, the media in the 24 well plates is changed to fresh Growth Media (1 ml/well) and the cells are dosed with small compounds. Compound stocks are prepared in DMSO at a concentration of 1 mM. At the time of the experiment 1 mM stock solutions are diluted to the concentration of 1 uM in Growth Media. One in 1000 dilution of DMSO is used for the control wells. After 24-48 h incubation at 37° C. and 5% CO2 the media is removed and RNA is extracted from the cells using SV Total RNA Isolation System from Promega (cat # Z3105) following the manufacturers' instructions. Six hundred nanograms of purified total RNA is added to the reverse transcription reaction performed using SuperScript VILO cDNA Synthesis Kit from Invitrogen (cat #11754-250) as described in the manufacturer's protocol. The cDNA from this reverse transcription reaction is used to monitor gene expression by real time PCR using ABI Taqman Gene Expression Mix (cat #4369510) and primers/probes designed by ABI (assays Hs00374696_ml, Hs00897350_ml or Hs00897341_ml for human SCN1A). The following PCR cycle is used: 50° C. for 2 min, 95° C. for 10 min, 40 cycles of (95° C. for 15 seconds, 60° C. for 1 min) using StepOne Plus Real Time PCR system (Applied Biosystems). The assay for 18S is manufactured by ABI (cat #4319413E). Fold change in gene expression after treatment with compounds is calculated based on the difference in 18S-normalized dCt values between compound- and vehicle-treated samples.
In Example 1 primary human skin fibroblasts carrying Dravet-associated SCN1A mutation were treated with small compounds at a final concentration of 1 uM.
Primary human skin fibroblasts carrying Dravet-associated SCN1A mutation introduced into culture by Dr. N. Kenyon (University of Miami) were grown in Growth Media consisting of a-MEM (Gibco, cat: 12561-056)+10% FBS (Mediatech, cat: 35-015 CV)+1% Antimycotic-Antibiotic (Gibco, cat: 15240-062) at 37° C. and 5% CO2. One day before the experiment cells were plated at the density of approximately 4×10^4/well into 24 well plates in Growth Media and incubated at 37° C. and 5% CO2 overnight. Next day, the media in the 24 well plates was changed to fresh Growth Media (I ml/well) and the cells were dosed with small compounds. All compounds were available from commercial sources. Compound stocks were prepared in DMSO at a concentration of 1 mM. At the time of the experiment 1 mM stock solutions were diluted to the concentration of 1 uM in Growth Media. One in 1000 dilution of DMSO was used for the control wells. After 24-48 h incubation at 37° C. and 5% CO2 the media was removed and RNA was extracted from the cells using SV Total RNA Isolation System from Promega (cat # Z3105) following the manufacturers' instructions. Six hundred nanograms of purified total RNA was added to the reverse transcription reaction performed using SuperScript VILO cDNA Synthesis Kit from Invitrogen (cat #11754-250) as described in the manufacturer's protocol. The cDNA from this reverse transcription reaction was used to monitor gene expression by real time PCR using ABI Taqman Gene Expression Mix (cat #4369510) and primers/probes designed by ABI (assays Hs00374696_ml, Hs00897350_ml or Hs00897341_ml for human SCN1A). Results obtained using all three assays were very similar (data not shown). […]

SCN1A mRNA [2] = assay: Upregulation of SCN1A mRNA in adult primary human keratinocytes (real time PCR); type: cell-based; details: compound 1 uM, 24-48 h, 18S-normalized vs vehicle (DMSO), average upregulation; for fold induction at 1 µM: Homo sapiens, Keratinocyte, read-out: fold increase in SCN1A mRNA levels, Keratinocytes, Avg
Procedure: as §1
In Example 2 primary human keratinocytes were treated with small compounds at a final concentration of 1 uM.
Adult primary human keratinocytes from PromoCell (Heidelberg, Germany, cat # C-12003) or LifeLine Cell Technology (Frederick, Md., cat # FC-0025) were grown in Growth Media supplied by the manufacturers at 37° C. and 5% CO2. One day before the experiment cells were plated at the density of approximately 4×10^4/well into 24 well plates in Growth Media and incubated at 37° C. and 5% CO2 overnight. Next day, the media in the 24 well plates was changed to fresh Growth Media (1 ml/well) and the cells were dosed with small compounds. All compounds were available from commercial sources.
Compound stocks were prepared in DMSO at a concentration of 1 mM. At the time of the experiment 1 mM stock solutions were diluted to the concentration of 1 uM in Growth Media. One in 1000 dilution of DMSO was used for the control wells. After 24-48 h incubation at 37° C. and 5% CO2 the media was removed and RNA was extracted from the cells using SV Total RNA Isolation System from Promega (cat # Z3105) following the manufacturers' instructions. Six hundred nanograms of purified total RNA was added to the reverse transcription reaction performed using SuperScript VILO cDNA Synthesis Kit from Invitrogen (cat #11754-250) as described in the manufacturer's protocol. The cDNA from this reverse transcription reaction was used to monitor gene expression by real time PCR using ABI Taqman Gene Expression Mix (cat #4369510) and primers/probes designed by ABI (assays Hs00374696_ml, Hs00897350_ml or Hs00897341_ml for human SCN1A). Results obtained using all three assays were very similar (data not shown). The following PCR cycle was used: 50° C. for 2 min, 95° C. for 10 min, 40 cycles of (95° C. for 15 seconds, 60° C. for 1 min) using StepOne Plus Real Time PCR system (Applied Biosystems). The assay for 18S was manufactured by ABI (cat #4319413E). […]

SMILES | fold induction at 1 µM (SCN1A mRNA [1]) | fold induction at 1 µM (SCN1A mRNA [2]) | fold increase in SCN1A mRNA levels, Keratinocytes, Avg (SCN1A mRNA [2]) | fold increase in SCN1A mRNA levels, SCN1A fibroblasts, Avg (SCN1A mRNA [1])
CCOC(=O)C1=C(C)NC(C)=C(C(=O)OC)C1c1cccc([N+](=O)[O-])c1 (racemic) [Nitrendipine, (RS)-ethyl methyl 2,6-dimethyl-4-(3-nitrophenyl)-1,4-dihydropyridine-3,5-dicarboxylate] | 2.13 |  |  | 
CC(C)c1ccc2oc3nc(N)c(C(=O)O)cc3c(=O)c2c1 [Amlexanox, 2-amino-7-isopropyl-5-oxo-5H-chromeno[2,3-b]pyridine-3-carboxylic acid] | 2.01 | 5.41 |  | 
COC(=O)C1=C(C)NC(C)=C(C(=O)OC2CCCN(Cc3ccccc3)C2)C1c1cccc([N+](=O)[O-])c1 [Benidipine, 5-Omethyl-3O-[(3R)-1-(phenylmethyl)-piperidin-3-yl]2,6-dimethyl-4-(3-nitrophenyl)-1,4-dihydropyridine-3,5-dicarboxylate] | 3.01 | 1.69 |  | 
O=c1c2ccccc2[se]n1-c1ccccc1 [Ebselen, 2-Phenyl-1,2-benzoselenazol-3-one] | 2.81 | 2.67 |  | 
COc1ccc(-c2oc3c(CC=C(C)C)c(O[C@@H]4O[C@H](CO)[C@@H](O)[C@H](O)[C@H]4O)cc(O)c3c(=O)c2O[C@@H]2O[C@@H](C)[C@H](O)[C@@H](O)[C@H]2O)cc1 [Icariin, 5-hydroxy-2-(4-methoxyphenyl)-8-(3-methylbut-2-enyl)-7-[(2S,3R,4S,5S,6R)-3,4,5-trihydroxy-6-(hydroxymethyl)oxan-2-yl]oxy-3-[(2S,3R,4R,5R,6S)-3,4,5-trihydroxy-6-methyloxan-2-yl]oxychromen-4-one] | 2.38 | 2.29 |  | 
CC(=O)N1CCN(c2ccc(OCC3COC(Cn4ccnc4)(c4ccc(Cl)cc4Cl)O3)cc2)CC1 [Ketoconazole, 1-[4-(4-{[(2R,4S)-2-(2,4-Dichlorophenyl)-2-(1H-imidazol-1-ylmethyl)-1,3-dioxolan-4-yl]methoxy}phenyl)piperazin-1-ylethan-1-one] | 2.95 | 2.73 |  | 
CS(=O)(=O)Nc1ccc(Cc2noc(-c3ccc4[nH]cc(CCN)c4c3)n2)cc1 [L-694,247, Methanesulfonamide,N-[4-[[5-[3-(2-aminoethyl)-1H-indol-5-yl]-1,2,4-oxadiazol-3-yl]methyl]phenyl]] |  |  | 1.68 fold | 2.20 fold
COc1ccc(CN2CCN(C(c3ccc(F)cc3)c3ccc(F)cc3)CC2)c(OC)c1OC [Lomerizine, 1-[bis(4-fluorophenyl)methyl]-4-[2,3,4-trimethoxyphenylmethyl]Dihydrochloride] | 2.39 | 3.47 |  | 
CCN(CC)C(=O)C1(c2ccccc2)CC1CN [Milnacipran, 1R(S),2S(R)[-2-(aminomethyl)-N,N-diethyl-1-phenylcyclopropanecarboxamide hydrochloride] | 4.37 | 2.72 |  | 
CCOc1cc(N)c(Cl)cc1C(=O)NCC1CN(Cc2ccc(F)cc2)CCO1 (stereo not shown) [Mosapride] | 1.9 | 1.47 |  | 
CCc1nn(CCCN2CCN(c3cccc(Cl)c3)CC2)c(=O)n1CCOc1ccccc1 [Nefazadone, 2-[3-[4-(3-chlorophenyl)-1-piperazinyl]propyl]-5-ethyl-2,4-dihydro-4-(2-phenoxyethyl)-3H-1,2,4-triazol-3-one monohydrochloride] | 2.39 | 4.53 |  | 
CN1C(=O)CN=C(c2ccccc2)c2cc([N+](=O)[O-])ccc21 [Nimetazepam, 2-methyl-9-nitro-6-phenyl-2,5-diazabicyclo[5.4.0]undeca-5,8,10,12-tetraen-3-one] | 2.03 | 2.47 |  | 
COc1ccc2[nH]c([S+]([O-])Cc3ncc(C)c(OC)c3C)nc2c1 (stereo not shown) [Omeprazole, 6-methoxy-2-((4-methoxy-3,5-dimethylpyridin-2-yl)methylsulfinyl)-1H-benzo[d]imidazole Mg] | 2.22 | 2.46 |  | 
CC(N=C(NC#N)Nc1ccncc1)C(C)(C)C (stereo not shown) [Pinacidil, N-cyano-N′pyridin-4-yl-N″-(1,2,2-trimethylpropyl)guanidine] | 3.48 |  |  | 
Cc1nc2n(c(=O)c1CCN1CCC(c3noc4cc(F)ccc34)CC1)CCCC2 [Risperidone, 3-[2-[4-(6-flouro-1,2-benzisoxazol-3-yl)-1-piperidinyl]-ethyl]-6,7,8,9-tetrahydro-2-methyl-4H-pyrido[,2-a]pyrimidin-4-one] | 3.48 | 3.02 |  | 
CN[C@H]1CC[C@@H](c2ccc(Cl)c(Cl)c2)c2ccccc21 [Sertraline, (1S,4S)-4-(3,4-dichlorophenyl)-N-methyl-1,2,3,4-tetrahydronaphthalen-1-amine] | 1.79 | 5.18 |  | 
C[C@]12Cc3c[nH]nc3C[C@@H]1CC[C@@H]1[C@@H]2CC[C@@]2(C)[C@H]1CC[C@]2(C)O [Stanozolol, 17β-Hydroxy-17-methyl-5α-androstano[3,2-c]-pyrazole] | 1.75 | 1.76 |  | 
CN1CC(=O)N2[C@H](c3ccc4c(c3)OCO4)c3[nH]c4ccccc4c3C[C@@H]2C1=O [Tadalafil, (6R-trans)-6-(1,3-benzodioxol-S-yl)-2,3,6,7,12,12a-hexahydro-2-methyl-pyrazino[1′,2′:1,6]pyrido[3,4-b]indole-1,4-dione] | 2.73 | 2.79 |  | 
Cc1cccc(Nc2ccncc2S(=O)(=O)NC(=O)NC(C)C)c1 [Torsemide] | 3.7 |  |  | 
C[C@H]1CCC[C@H](O)CCCCCc2cc(O)cc(O)c2C(=O)O1 [Zeranol, (3S,7R)-7,14,16-trihydroxy-3-methyl-3,4,5,6,7,8,9,10,11,12-decahydro-1H-2-benzoxacyclotetradecin-1-one] | 2.6 | 4.51 |  | 
